Laboratory results reported in ChEMBL document CHEMBL4043162, “Synthesis of novel flavonoid alkaloids as α-glucosidase inhibitors” (Bioorg Med Chem, 2017).
pIC50, pKi: −log10 of the molar value. Calls of active or inactive are those of the source. The calls are words filed in the database; no cut-off is given here.

Tested on: Saccharomyces cerevisiae
Test: Non-competitive inhibition of Saccharomyces cerevisiae alpha-glucosidase pre-incubated for 15 mins before p-nitrophenyl-alpha-D-glucopyranoside substrate addition and measured after 30 mins by UV spectrometry based Lineweaver-Burk plot

| SMILES | inhibition |
| --- | --- |
| O=C1CC(c2ccc(O)cc2)Oc2cc(O)c(CN3CCc4ccccc4C3)c(O)c21 (configuration not stated) | Active |
| CCOC(=O)c1ccc(N2CCN(Cc3c(O)cc4c(c3O)C(=O)CC(c3ccc(O)cc3)O4)CC2)cc1 (configuration not stated) | Active |

Biological target: not listed separately
Test: Inhibition of Saccharomyces cerevisiae alpha-glucosidase pre-incubated for 15 mins before p-nitrophenyl-alpha-D-glucopyranoside substrate addition and measured after 30 mins by UV spectrometry

| SMILES | pIC50 |
| --- | --- |
| CCOC(=O)N1CCN(Cc2c(O)cc3c(c2O)C(=O)CC(c2ccc(O)cc2)O3)CC1 (configuration not stated) | 4.19 |
| O=c1cc(-c2ccccc2)oc2cc(O)c(CN3CCc4ccccc4C3)c(O)c12 | < 3.30 |
| Oc1ccc(C2CCc3c(O)cc(O)c(C4CCCCN4)c3O2)cc1 (configuration not stated) | < 3.30 |
| O=C1CC(c2ccc(O)cc2)Oc2cc(O)c(CN3CCc4ccccc4C3)c(O)c21 (configuration not stated) | 4.63 |
| Oc1ccc(C2CCc3c(cc(O)c(C4CCCCN4)c3O)O2)cc1 (configuration not stated) | < 3.30 |
| CCOC(=O)c1ccc(N2CCN(Cc3c(O)cc4c(c3O)C(=O)CC(c3ccc(O)cc3)O4)CC2)cc1 (configuration not stated) | 5.39 |
| O=C1CC(c2ccc(O)cc2)Oc2cc(O)c(CN3CCOCC3)c(O)c21 (configuration not stated) | 3.69 |
| O=c1cc(-c2ccccc2)oc2c(CN3CCN(CCO)CC3)c(O)cc(O)c12 | < 3.30 |
| O=C1CC(c2ccc(O)cc2)Oc2cc(O)c(C3CCCCN3)c(O)c21 (configuration not stated) | 3.60 |
| O=c1cc(-c2ccccc2)oc2cc(O)c(CN3CCCCC3)c(O)c12 | < 3.30 |
| O=C1c2c(cc(O)c(C3CCCCN3)c2O)OC(c2ccc(O)c(O)c2)C1O (configuration not stated) | < 3.30 |
| O=c1cc(-c2ccc(O)cc2)oc2cc(O)c(C3CCCCN3)c(O)c12 (configuration not stated) | 3.53 |
| CCN(CC)Cc1c(O)cc2oc(-c3ccccc3)cc(=O)c2c1O | 3.66 |
| O=c1cc(-c2ccccc2)oc2cc(O)c(C3CCCCN3)c(O)c12 (configuration not stated) | < 3.30 |
| O=c1cc(-c2ccccc2)oc2cc(O)c(CN3CCN(CCO)CC3)c(O)c12 | < 3.30 |
| O=C1CC(c2ccc(O)cc2)Oc2cc(O)c(CN3CCN(CCO)CC3)c(O)c21 (configuration not stated) | 3.28 |
| O=C1CC(c2ccc(O)cc2)Oc2cc(O)c(CN3CCCCC3)c(O)c21 (configuration not stated) | 4.08 |
| O=c1cc(-c2ccccc2)oc2c(C3CCCCN3)c(O)cc(O)c12 (configuration not stated) | < 3.30 |
| COc1ccc(C2CC(=O)c3c(cc(O)c(C4CCCCN4)c3O)O2)cc1O (configuration not stated) | < 3.30 |
| CCOC(=O)N1CCN(Cc2c(O)cc3oc(-c4ccccc4)cc(=O)c3c2O)CC1 | < 3.30 |
| CCOC(=O)N1CCN(Cc2c(O)c(CN3CCN(C(=O)OCC)CC3)c3oc(-c4ccccc4)cc(=O)c3c2O)CC1 | < 3.30 |
| O=c1cc(-c2ccccc2)oc2cc(O)c(CN3CCOCC3)c(O)c12 | < 3.30 |
| COc1ccc(-c2coc3c(CN4CCCCC4)c(O)ccc3c2=O)cc1 | < 3.30 |

Biological target: not listed separately
Test: Non-competitive inhibition of Saccharomyces cerevisiae alpha-glucosidase pre-incubated for 15 mins before p-nitrophenyl-alpha-D-glucopyranoside substrate addition and measured after 30 mins by UV spectrometry based Dixon plot

| SMILES | pKi |
| --- | --- |
| O=C1CC(c2ccc(O)cc2)Oc2cc(O)c(CN3CCc4ccccc4C3)c(O)c21 (configuration not stated) | 4.42 |
| CCOC(=O)c1ccc(N2CCN(Cc3c(O)cc4c(c3O)C(=O)CC(c3ccc(O)cc3)O4)CC2)cc1 (configuration not stated) | 4.88 |
